Like-named read-outs stand apart in the source and are kept apart here.
Tests used:
[1] = Sensory test: degree of change in smell after standing at 30° C. for 3 months;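 for Stability S.E. (Sensory Evaluation): double circle means no smell deterioration on a four-grade scale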; type: physicochemical; conditions: for Stability S.E. (Sensory Evaluation) / deterioration in smell (in words): 30° C., 3 months
Protocol: (§1) One month thereafter, regenerated hair was collected from a constant area and the rate (%) of generated grayed hair to all the number of hair collected was estimated. In addition, the aforementioned hair tonic type preparations were allowed to stand at 30° C. for 3 months and the residual amount of the test compounds therein was examined by liquid chromatography as well as the degree of change in smell was also evaluated by means of sensory test.
as §1, with “compositions” for “hair tonic type preparations”, “by” for “by means of”, “test. […] In addition, the abbreviation P means the averaged added molar number of ethylene oxide residues.” for “test.”

[2] = Stability: residual amount of test compound after standing at 30° C. for 3 months, liquid chromatography; type: physicochemical
Protocol: as §1
as §1, with “compositions” for “hair tonic type preparations”, “by” for “by means of”, “test. […] In addition, the abbreviation P means the averaged added molar number of ethylene oxide residues.” for “test.”

grayed hair = assay: Half-Head technique application to scalp of men having grayed hair; type: in vivo, men (40 to 60 years old)
Protocol: Then, the effects of preventing graying of the hair and restoring grayed hair to its natural color were evaluated by comparing the conditions of the portions observed before and after the application of Samples and the results obtained were listed in the following Table VIII. […]
Then, the effectiveness of the hair cream of the invention and that of Comp.

[3] = system: grayed hair (melanocytes); assay: Inhibition of generation of grayed hair in stressed black mice; type: in vivo; conditions: for Rate of Grayed Hair (%): 0.1 ml twice a day, 1 month
Protocol: It is known that stress is one of the causes of graying of the hair. […] Moreover, the stability of the composition with time was also estimated.
as §1
as §1, with “compositions” for “hair tonic type preparations”, “by” for “by means of”, “test. […] In addition, the abbreviation P means the averaged added molar number of ethylene oxide residues.” for “test.”

[4] = Example 6, hair tonic as in Example 3
[5] = Table V, 0.05% test compound in hair tonic, control 17.1
[6] = hair tonic, Table V, 0.05% in hair tonic, 30° C., 3 months, read-out: Stability Residue(%)
[7] = Table III, 0.1% test compound in hair tonic, control 16.5
[8] = hair tonic, Table III, 0.1% in hair tonic, 30° C., 3 months, read-out: Stability Residue(%)
[9] = Example 7, hair cream as in Example 5
[10] = Examples 3 to 5, Half-Head, men, 3 months

Nc1ncnc2c1nc(SCc1ccccc1)n2[C@@H]1O[C@@H]2COP(=O)(O)O[C@H]2[C@H]1O [8-benzylthio cAMP-Na]
quality deterioration such as giving out of bad smell ([1]; Example 6, hair tonic): did not cause quality deterioration such as giving out of bad smell
stability (in words) ([2]; Example 6, hair tonic): stable
effect of preventing graying of the hair and restoring grayed hair to its natural color (in words) (grayed hair; [4]): the same effect of preventing graying of the hair and restoring grayed hair to its natural color as in Example 3

CCCCOc1nc2c(N)ncnc2n1[C@@H]1O[C@@H]2COP(=O)(O)O[C@H]2[C@H]1O [8-butoxy cAMP-Na]
Rate of Grayed Hair (%) [3, 5]: 6.0%
quality deterioration such as giving out of bad smell ([1]; Example 6, hair tonic): did not cause quality deterioration such as giving out of bad smell
Stability S.E. (Sensory Evaluation) ([1]; Table V, 0.05% in hair tonic): .circleincircle.
stability (in words) ([2]; Example 6, hair tonic): stable
remaining at 2190 h [2, 6]: 99.9%
effect of preventing graying of the hair and restoring grayed hair to its natural color (in words) (grayed hair; [4]): the same effect of preventing graying of the hair and restoring grayed hair to its natural color as in Example 3

Nc1ncnc2c1nc(F)n2[C@@H]1O[C@@H]2COP(=O)(O)O[C@H]2[C@H]1O [8-fluoro cAMP]
Rate of Grayed Hair (%) [3, 7]: 7.6%
Stability S.E. (Sensory Evaluation) ([1]; Table III, 0.1% in hair tonic): .circleincircle.
remaining at 2190 h [2, 8]: 99.5%

Nc1ncnc2c1nc(Cl)n2[C@@H]1O[C@@H]2COP(=O)(O)O[C@H]2[C@H]1O [8-chloro cAMP-Na]
quality deterioration such as giving out of bad smell ([1]; Example 7, hair cream): did not cause quality deterioration such as giving out of bad smell
stability (in words) ([2]; Example 7, hair cream): stable
effect of preventing graying of the hair and restoring grayed hair to its natural color (in words) (grayed hair; [9]): the same effect of preventing graying of the hair and restoring grayed hair to its natural color as in Example 5

CCCCn1cnc2c(ncn2[C@@H]2O[C@@H]3COP(=O)([O-])O[C@H]3[C@H]2O)c1=N.[Na+] [1-butyl cAMP-Na]
quality deterioration such as giving out of bad smell ([1]; Example 7, hair cream): did not cause quality deterioration such as giving out of bad smell
stability (in words) ([2]; Example 7, hair cream): stable
effect of preventing graying of the hair and restoring grayed hair to its natural color (in words) (grayed hair; [9]): the same effect of preventing graying of the hair and restoring grayed hair to its natural color as in Example 5

CCOc1nc2c(N)ncnc2n1[C@@H]1O[C@@H]2COP(=O)(O)O[C@H]2[C@H]1O [8-ethoxy cAMP-Na]
Rate of Grayed Hair (%) [3, 5]: 5.3%
quality deterioration such as giving out of bad smell ([1]; Example 6, hair tonic): did not cause quality deterioration such as giving out of bad smell
Stability S.E. (Sensory Evaluation) ([1]; Table V, 0.05% in hair tonic): .circleincircle.
stability (in words) ([2]; Example 6, hair tonic): stable
remaining at 2190 h [2, 6]: 99.8%
effect of preventing graying of the hair and restoring grayed hair to its natural color (in words) (grayed hair; [4]): the same effect of preventing graying of the hair and restoring grayed hair to its natural color as in Example 3

Nc1ncnc2c1nc(Sc1ccc(Cl)cc1)n2[C@@H]1O[C@@H]2COP(=O)(O)O[C@H]2[C@H]1O [8-4-chlorophenylthio cAMP-Na]
Rate of Grayed Hair (%) [3, 5]: 6.0%
Stability S.E. (Sensory Evaluation) ([1]; Table V, 0.05% in hair tonic): .circleincircle.
remaining at 2190 h [2, 6]: 99.9%

CCCCCCCCn1cnc2c(ncn2[C@@H]2O[C@@H]3COP(=O)([O-])O[C@H]3[C@H]2O)c1=N.[Na+] [1-octyl cAMP-Na]
quality deterioration such as giving out of bad smell ([1]; Example 7, hair cream): did not cause quality deterioration such as giving out of bad smell
stability (in words) ([2]; Example 7, hair cream): stable
effect of preventing graying of the hair and restoring grayed hair to its natural color (in words) (grayed hair; [9]): the same effect of preventing graying of the hair and restoring grayed hair to its natural color as in Example 5

O=P1(O)OC[C@H]2O[C@@H](n3cnc4c3ncn3ccnc43)[C@H](O)[C@@H]2O1 [1,N^6 -etheno cAMP]
Rate of Grayed Hair (%) [3, 7]: 7.5%
Stability S.E. (Sensory Evaluation) ([1]; Table III, 0.1% in hair tonic): .circleincircle.
remaining at 2190 h [2, 8]: 99.8%

CCn1cnc2c(ncn2[C@@H]2O[C@@H]3COP(=O)([O-])O[C@H]3[C@H]2O)c1=N.[Na+] [1-ethyl cAMP-Na]
quality deterioration such as giving out of bad smell ([1]; Example 7, hair cream): did not cause quality deterioration such as giving out of bad smell
stability (in words) ([2]; Example 7, hair cream): stable
effect of preventing graying of the hair and restoring grayed hair to its natural color (in words) (grayed hair; [9]): the same effect of preventing graying of the hair and restoring grayed hair to its natural color as in Example 5

Cn1cnc2c(ncn2[C@@H]2O[C@@H]3COP(=O)(O)O[C@H]3[C@H]2O)c1=N [1-methyl cAMP]
Rate of Grayed Hair (%) [3, 7]: 8.2%
Stability S.E. (Sensory Evaluation) ([1]; Table III, 0.1% in hair tonic): .circleincircle.
Stability Residue(%) ([2]; Table III, 0.1% in hair tonic, 30° C., 3 months, 131400 min): 99.6%

Nc1ncnc2c1nc(SCCO)n2[C@@H]1O[C@@H]2COP(=O)([O-])O[C@H]2[C@H]1O.[Na+] [8-ethylhydroxythio cAMP-Na]
Rate of Grayed Hair (%) [3, 5]: 5.5%
quality deterioration such as giving out of bad smell ([1]; Example 6, hair tonic): did not cause quality deterioration such as giving out of bad smell
Stability S.E. (Sensory Evaluation) ([1]; Table V, 0.05% in hair tonic): .circleincircle.
stability (in words) ([2]; Example 6, hair tonic): stable
Stability Residue(%) ([2]; Table V, 0.05% in hair tonic, 30° C., 3 months, 131400 min): 99.6%
effect of preventing graying of the hair and restoring grayed hair to its natural color (in words) (grayed hair; [4]): the same effect of preventing graying of the hair and restoring grayed hair to its natural color as in Example 3

CCCC(=O)Nc1ncnc2c1ncn2[C@@H]1O[C@@H]2COP(=O)(O)O[C@H]2[C@H]1OC(=O)CCC [N^6,O^2' -dibutyryl cAMP-Na, reference compound]
effect of inhibiting generation of grayed hair (in words) ([3]; Example 2, 0.05%): exhibits the aforementioned effect
Rate of Grayed Hair (%) [3, 5]: 8.8%
deterioration in smell (in words) ([1]; Example 2): substantial deterioration in smell
Stability Residue(%) ([2]; hair tonic, 2190 h): 84.5%

CCCCNc1nc2c(N)ncnc2n1[C@@H]1O[C@@H]2COP(=O)(O)O[C@H]2[C@H]1O [8-butylamino cAMP-Na]
Rate of Grayed Hair (%) [3, 5]: 7.1%
quality deterioration such as giving out of bad smell ([1]; Example 7, hair cream): did not cause quality deterioration such as giving out of bad smell
Stability S.E. (Sensory Evaluation) ([1]; Table V, 0.05% in hair tonic): .circleincircle.
stability (in words) ([2]; Example 7, hair cream): stable
remaining at 2190 h [2, 6]: 99.5%
effect of preventing graying of the hair and restoring grayed hair to its natural color (in words) (grayed hair; [9]): the same effect of preventing graying of the hair and restoring grayed hair to its natural color as in Example 5

CNc1nc2c(N)ncnc2n1[C@@H]1O[C@@H]2COP(=O)(O)O[C@H]2[C@H]1O [8-methylamino cAMP-Na]
quality deterioration such as giving out of bad smell ([1]; Example 7, hair cream): did not cause quality deterioration such as giving out of bad smell
stability (in words) ([2]; Example 7, hair cream): stable
effect of preventing graying of the hair and restoring grayed hair to its natural color (in words) (grayed hair; [9]): the same effect of preventing graying of the hair and restoring grayed hair to its natural color as in Example 5

Nc1ncnc2c1nc(SCc1ccccc1)n2[C@@H]1O[C@@H]2COP(=O)(O)O[C@H]2[C@H]1O [8-benzylthio cAMP]
Rate of Grayed Hair (%) [3, 7]: 7.2%
Stability S.E. (Sensory Evaluation) ([1]; Table III, 0.1% in hair tonic): .circleincircle.
remaining at 2190 h [2, 8]: 100%

CSc1nc2c(N)ncnc2n1[C@@H]1O[C@@H]2COP(=O)(O)O[C@H]2[C@H]1O [8-methylthio cAMP]
Rate of Grayed Hair (%) [3, 7]: 8.0%
Stability S.E. (Sensory Evaluation) ([1]; Table III, 0.1% in hair tonic): .circleincircle.
remaining at 2190 h [2, 8]: 99.9%

CSc1nc2c(N)ncnc2n1[C@@H]1O[C@@H]2COP(=O)(O)O[C@H]2[C@H]1O [8-methylthio cAMP-Na]
quality deterioration such as giving out of bad smell ([1]; Example 7, hair cream): did not cause quality deterioration such as giving out of bad smell
stability (in words) ([2]; Example 7, hair cream): stable
effect of preventing graying of the hair and restoring grayed hair to its natural color (in words) (grayed hair; [9]): the same effect of preventing graying of the hair and restoring grayed hair to its natural color as in Example 5

Nc1ncnc2c1nc(Sc1ccccc1)n2[C@@H]1O[C@@H]2COP(=O)(O)O[C@H]2[C@H]1O [8-phenylthio cAMP]
Rate of Grayed Hair (%) [3, 7]: 7.1%
Stability S.E. (Sensory Evaluation) ([1]; Table III, 0.1% in hair tonic): .circleincircle.
remaining at 2190 h [2, 8]: 100%

CCN(CC)CC.Cn1cnc2c(ncn2[C@@H]2O[C@@H]3COP(=O)(O)O[C@H]3[C@H]2O)c1=N [1-methyl cAMP-triethylammonium]
effect of preventing graying of the hair and restoring grayed hair to its natural color (in words) (grayed hair; [10]): remarkable effects of preventing graying of the hair and restoring grayed hair to its natural color

CCCC(=O)Nc1ncnc2c1ncn2[C@@H]1O[C@@H]2COP(=O)(O)O[C@H]2[C@H]1OC(=O)CCC [N^6,O^2' -dibutyryl cAMP, reference compound]
effect of inhibiting generation of grayed hair (in words) ([3]; Example 1, 0.1%): exhibits the grayed hair inhibitory effect
Rate of Grayed Hair (%) [3, 7]: 9.1%
deterioration in smell (in words) ([1]; Example 1): high deterioration in smell
remaining at 2190 h ([2]; hair tonic, Stability Residue(%)): 86.4%

COc1nc2c(N)ncnc2n1[C@@H]1O[C@@H]2COP(=O)(O)O[C@H]2[C@H]1O [8-methoxy cAMP]
Rate of Grayed Hair (%) [3, 7]: 7.8%
Stability S.E. (Sensory Evaluation) ([1]; Table III, 0.1% in hair tonic): .circleincircle.
remaining at 2190 h [2, 8]: 99.7%

O=P1(O)OC[C@H]2O[C@@H](n3cnc4c3ncn3ccnc43)[C@H](O)[C@@H]2O1 [1,N^6 -etheno cAMP-K]
effect of preventing graying of the hair and restoring grayed hair to its natural color (in words) (grayed hair; [10]): remarkable effects of preventing graying of the hair and restoring grayed hair to its natural color
